Several values for one entry are separate records, joined by “and”; a condition that tells them apart may be missing. Equal entries are not always repeated. Toxic doses and inconclusive results are not listed. Rule for the calls: active = survival T/C of 150% or more; inactive = T/C below 125% in these data.
Tested on: CD2F1 mice, L1210 leukemia ip, survival T/C
Assay: NCI In Vivo Anticancer Drug Screen. Data for tumor model L1210 Leukemia (intraperitoneal) in CD2F1 (CDF1) mice
Conditions: endpoint: mean survival time, higher = longer survival
Outline: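 Transplantable tumor in mice; compound-treated vs vehicle-treated groups. Read-out = treated/control ratio of the measured endpoint.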

[1] = dose: 100.0 mg/kg/injection, schedule: Q01DX001 (ip), vehicle: saline
[2] = dose: 200.0 mg/kg/injection, schedule: Q01DX001 (ip), vehicle: saline
[3] = dose: 400.0 mg/kg/injection, schedule: Q01DX001 (ip), vehicle: saline
[4] = dose: 100.0 mg/kg/injection, schedule: Q01DX009 (ip), vehicle: saline with Tween-80
[5] = dose: 100.0 mg/kg/injection, schedule: Q01DX001 (ip), vehicle: saline with Tween-80
[6] = dose: 400.0 mg/kg/injection, schedule: Q01DX001 (ip), vehicle: saline with Tween-80

Measured: T/C

c1ccc(-c2ccc(-c3nnn4ccccc34)cc2)cc1
inactive: [1] 107 % of control | [2] 86 % of control | [3] 95 % of control

CCc1ccccc1OCC1CO1 (stereo unspecified)
inactive: [1] 102 % of control | [2] 100 % of control | [3] 102 % of control

COc1ccccc1/C=C/c1ccnc2ccccc12
inactive: dose: 100.0 mg/kg/injection, schedule: Q01DX009 (ip), vehicle: saline 98 % of control | dose: 200.0 mg/kg/injection, schedule: Q01DX009 (ip), vehicle: saline 95 % of control | dose: 400.0 mg/kg/injection, schedule: Q01DX009 (ip), vehicle: saline 96 % of control

Nc1ccc(SCCCc2c(N)nc(N)nc2N)cc1
inactive: dose: 100.0 mg/kg/injection, schedule: Q01DX001 (ip), vehicle: other 100 % of control | dose: 200.0 mg/kg/injection, schedule: Q01DX001 (ip), vehicle: other 96 % of control

CC(C)OC(CCC#N)c1ccc(Cl)cc1 (stereo unspecified)
inactive: dose: 100.0 mg/kg/injection, schedule: Q01DX009 (ip), vehicle: other 98 % of control | dose: 100.0 mg/kg/injection, schedule: Q04DX003 (ip), vehicle: other 94 % of control | dose: 200.0 mg/kg/injection, schedule: Q01DX009 (ip), vehicle: other 107 % of control | dose: 200.0 mg/kg/injection, schedule: Q04DX003 (ip), vehicle: other 94 % of control | dose: 400.0 mg/kg/injection, schedule: Q01DX009 (ip), vehicle: other 96 % of control | dose: 400.0 mg/kg/injection, schedule: Q04DX003 (ip), vehicle: other 93 % of control

O=S(=O)(CC(I)c1ccccc1)c1ccccc1 (stereo unspecified)
inactive: dose: 75.0 mg/kg/injection, schedule: Q01DX009 (ip), vehicle: saline 99 % of control | dose: 150.0 mg/kg/injection, schedule: Q01DX009 (ip), vehicle: saline 91 % of control | dose: 300.0 mg/kg/injection, schedule: Q01DX009 (ip), vehicle: saline 92 % of control

CCOP(=S)(OCC)N1c2ccccc2Sc2ccccc21
inactive: dose: 50.0 mg/kg/injection, schedule: Q01DX009 (ip), vehicle: saline with Tween-80 95 % of control | [4] 90 % of control

CCCC(=O)O.CCCC(=O)O.CCCC(=O)O.CCCC(=O)O.[Rh].[Rh]
inactive: dose: 0.03 mg/kg/injection, schedule: Q01DX009 (ip), vehicle: saline + alcohol 100 % of control and 104 % of control | dose: 0.06 mg/kg/injection, schedule: Q01DX009 (ip), vehicle: saline + alcohol 93 % of control and 104 % of control | dose: 0.12 mg/kg/injection, schedule: Q01DX009 (ip), vehicle: saline + alcohol 96 % of control and 110 % of control | dose: 0.25 mg/kg/injection, schedule: Q01DX009 (ip), vehicle: saline + alcohol 100 % of control and 104 % of control | dose: 0.5 mg/kg/injection, schedule: Q01DX009 (ip), vehicle: saline + alcohol 100 % of control and 112 % of control | dose: 1.0 mg/kg/injection, schedule: Q01DX009 (ip), vehicle: saline + alcohol 102 % of control and 110 % of control

Cn1c(-c2ccccc2)nc2c(N)ncnc21
inactive: [5] 93 % of control | [6] 87 % of control

CN(/N=C/c1ccc([N+](=O)[O-])cc1)c1ccccc1
inactive: [5] 100 % of control | dose: 200.0 mg/kg/injection, schedule: Q01DX001 (ip), vehicle: saline with Tween-80 106 % of control | [6] 91 % of control

CCC(C)C(C(=O)O)c1ccccc1 (stereo unspecified)
inactive: [4] 104 % of control | dose: 200.0 mg/kg/injection, schedule: Q01DX009 (ip), vehicle: saline with Tween-80 101 % of control | dose: 400.0 mg/kg/injection, schedule: Q01DX009 (ip), vehicle: saline with Tween-80 98 % of control
